Where a SMILES comes first, the peptide text is derived from it.
How the values were obtained:
KcsA-Kv1.1 T+F chimera = target: T1, KcsA-Kv1.1 T+F chimera (Streptomyces lividans, UniProt P0A334, R52A/G53E/A54E/P55A/G56E/A57S/Q58H/L59F/I60S/T61S/Y62I/R64D/L81M); assay: Phage-binding competition assay, KcsA-Kv1.1 T+F; parameters: species or system human Kv1.1 turret and filter in Streptomyces lividans KcsA; conditions: for competition binding to KcsA-Kv1.1 T+F, in words: ShK-phage competition, native peptide, Fig. 8F (ligand-binding pattern); for Rank, T+F chimera (Kv1.1): rank by competition IC50 among ShK, KTX1, MTX
T1 sequence (P0A334 1-160 R52A/G53E/A54E/P55A/G56E/A57S/Q58H/L59F/I60S/T61S/Y62I/R64D/L81M): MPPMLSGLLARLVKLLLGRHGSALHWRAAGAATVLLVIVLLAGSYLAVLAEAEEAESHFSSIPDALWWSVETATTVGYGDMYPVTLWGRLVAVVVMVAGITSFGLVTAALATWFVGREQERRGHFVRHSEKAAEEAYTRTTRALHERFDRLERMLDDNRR
Procedure: Phage stock solutions were diluted to working concentration with phage resuspension buffer supplemented with 2 mM DDM. For protein immobilization, the following amounts were used in a final volume of 50 μl/well: wt KcsA, 0.1 μg; KcsA-Kv1.1 T-only, 0.005 μg; KcsA-Kv1.1 T+F, 0.02 μg; KcsA-Kv1.2 T-only, 0.01 μg; KcsA-Kv1.2 T+F, 0.1 μg; KcsA-Kv1.3 T-only, 0.01 μg; and KcsA-Kv1.3 T+F, 0.1 μg. Protein samples were diluted in 50 μl of storage buffer (20 mM Tris pH8.0, 300 mM KCl, 2 mM DDM) and were added to the designated wells of a Pierce Clear, 96-Well Nickel Coated Plate (15442, Thermo Fisher Scientific), then incubated for 1 h at room temperature on a horizontal shaker at 130 rpm. The plate was blocked for 1 h at room temperature with 180 μl/well TBS-BSA supplemented with 1 mM DDM. Following blocking, the wells were washed 4× with washing buffer (300 μl TBS-Tween, 0.1% v/v) using a Wellwash Versa microplate washer (Thermo Fisher Scientific); then 50 μl phage solution (in TBS-BSA-Tween, 0.1% v/v, 2 mM DDM) at determined phage concentration was added to the wells and incubated for 1 h at room temperature on a horizontal shaker. The plate was washed 4× with washing buffer, then 50 μl anti-M13 IgG HRP (MA5-36125, Invitrogen) diluted to 1:2500 in TBS-Tween (0.1% v/v) was added to the wells and incubated for 1 h at room temperature. The plate was washed again 4× with 300 μl/well washing buffer. Finally, 50 μl/well 1-Step Ultra TMB-ELISA solution (34028, Thermo Fisher Scientific) was added to the wells, and the developing signal was stopped with 50 μl 1M HCl after 5 to 10 min. The light absorbance signal was read at 450 nm with Byonoy absorbance 96 plate reader (Byonoy GmbH).
For protein immobilization, the following amounts were used in a final volume of 50 μl/well: KcsA-Kv1.1 T-only, 0.005 μg; KcsA-Kv1.1 T+F, 0.01 μg; KcsA-Kv1.2 T-only, 0.025 μg; KcsA-Kv1.2 T+F, 0.0125 μg; KcsA-Kv1.3 T-only, 0.01 μg; and KcsA-Kv1.3 T+F, 0.1 μg. Protein samples were diluted in storage buffer. Binding of given concentrations of relevant ligand-displaying phages quantified by light absorbance ([…]) were investigated in a similar manner as in phage ELISA-binding assay, while different concentrations of competing toxin test substances were applied simultaneously. The results were converted to percent inhibitions (percent displacement) of the indicator phage binding, and relative affinities of the tested toxins were assessed by plotting percent displacements against log concentrations and determining half maximal inhibitory concentrations (IC50) by sigmoidal curve fitting using “Sigmoidal dose-response (variable slope) with least squares method” algorithm in GraphPad Prism 8 using the following equation: Y=Bottom+Top−Bottom/1+10^(LogEC50−×)⋅HillSlope

[1] = system: human Kv1.2 channel (hKv1.2); assay: Whole-cell patch-clamp, hKv1.2-expressing CHO cells; type: cell-based; conditions: see Table 1 and Fig. S2; 10 nM peptide in patch-clamp
Procedure: Chinese Hamster Ovarian cells were grown in Dulbecco’s modified Eagle’s medium–high glucose supplemented with 10% FBS, 2 mM L-glutamine, 100 U/ml penicillin-g, and 100 μg/ml streptomycin (Invitrogen) at 37 °C in a 5% CO2 and 95% air humidified atmosphere. Cells were passaged twice per week following a 5 min incubation in PBS containing 0.2 g/L EDTA. Chinese Hamster Ovarian cells were transiently transfected with plasmids encoding human Kv1.1 (hKCNA1 gene) and human Kv1.2 (hKCNA2 gene) in pCMV6-AC-GFP plasmid (RG211000 and RC222200, OriGene Technologies) using Lipofectamine 2000 (Invitrogen) following the manufacturer’s protocol, then cultured under standard conditions. Transfected cells were washed twice with 2 ml of extracellular solution (ECS, see below) and replated onto 35 mm polystyrene cell culture dishes (Cellstar, Greiner Bio-One) before the patch-clamp experiments. […] In general, currents were recorded 24 to 36 h after transfection.
Conventional whole-cell patch-clamp electrophysiology was used to record ionic currents. Micropipettes were pulled from GC150F-7.5 borosilicate capillaries (Harvard Apparatus) with tip diameters between 0.5 and 1 μm resulting in a tip resistance of 2 to 8 MΩ in the extracellular (bath) solution. […]
Native peptides, phage-expressed peptides, and positive controls used for them were dissolved in ECS supplemented with 0.1 mg/ml bovine serum albumin (BSA; Sigma-Aldrich Hungary). Bath perfusion around the measured cell with different extracellular solutions was achieved using a gravity flow micro perfusion system using a rate of 0.5 ml/min. […]
Voltage protocols: For measurement of Kv1.1 to 1.3 currents, voltage steps to +50 mV were applied from a holding potential of −120 mV and the peak current was measured every 15 s. […] The remaining current fraction at a given molar concentration was calculated as I/I0, where I0 is the peak current in the absence and I is the peak current at equilibrium block or […] after ∼2 min perfusion by the investigated peptide/phage.

SMILES	competition binding to KcsA-Kv1.1 T+F, in words (KcsA-Kv1.1 T+F chimera)	Rank, T+F chimera (Kv1.1) (KcsA-Kv1.1 T+F chimera)	potency ranking, Kv1.2 [1]	competition binding to KcsA-Kv1.1 T+F, in words (KcsA-Kv1.1 T+F chimera; listed as MTX1)
CC[C@H](C)[C@H](NC(=O)[C@H](CCC(=O)O)NC(=O)[C@@H](NC(=O)CN)C(C)C)C(=O)N[C@@H](CC(N)=O)C(=O)N[C@H](C(=O)N[C@@H](CCCCN)C(=O)N[C@H]1CSSC[C@@H]2NC(=O)[C@H](CCCCN)NC(=O)CNC(=O)[C@H](Cc3ccccc3)NC(=O)[C@H](CCCNC(=N)N)NC(=O)[C@H](CCSC)NC(=O)CNC(=O)[C@H](C)NC(=O)[C@H](CC(=O)O)NC(=O)[C@H](CCCCN)NC(=O)[C@@H]3CSSC[C@@H](C(=O)N[C@H](C(=O)N4CCC[C@H]4C(=O)N[C@@H](CCCCN)C(=O)O)[C@@H](C)O)NC(=O)[C@H](Cc4c[nH]cn4)NC(=O)[C@H](CSSC[C@H](NC(=O)[C@H](CCC(N)=O)NC(=O)[C@@H]4CCCN4C(=O)[C@H](CO)NC(=O)CNC(=O)[C@H](CO)NC1=O)C(=O)N[C@@H](CC(C)C)C(=O)N[C@@H](CCCCN)C(=O)N1CCC[C@H]1C(=O)N3)NC(=O)[C@H](CCCCN)NC(=O)[C@H](CCCNC(=N)N)NC(=O)[C@H](CC(N)=O)NC(=O)[C@H](CCSC)NC2=O)C(C)C [KTX1, Kaliotoxin-1]	ShK > KTX1 > MTX	2	MTX > ShK >> KTX1	
CC[C@H](C)[C@@H]1NC(=O)[C@@H]2CSSC[C@H](NC(=O)[C@H](CO)NC(=O)[C@@H](N)C(C)C)C(=O)N[C@@H]([C@@H](C)O)C(=O)NCC(=O)N[C@@H](CO)C(=O)N[C@@H](CCCCN)C(=O)N[C@@H](CC(=O)O)C(=O)N[C@@H](CSSC[C@@H](C(=O)N[C@@H](CCCCN)C(=O)N[C@H]3CSSC[C@@H](C(N)=O)NC(=O)CNC(=O)[C@H](Cc4ccc(O)cc4)NC3=O)NC(=O)[C@H](CO)NC(=O)[C@H](CCCCN)NC(=O)[C@H](CC(N)=O)NC1=O)C(=O)N[C@@H](Cc1ccc(O)cc1)C(=O)N[C@@H](C)C(=O)N1CCC[C@H]1C(=O)N[C@H]1CSSC[C@H](NC(=O)CNC(=O)[C@H]([C@@H](C)O)NC(=O)[C@H](CCC(N)=O)NC(=O)[C@H](CCCCN)NC(=O)[C@H](CCCNC(=N)N)NC1=O)C(=O)N1CCC[C@H]1C(=O)N[C@@H](CC(N)=O)C(=O)N[C@@H](C)C(=O)N[C@@H](CCCCN)C(=O)N2 [MTX, Maurotoxin] (HELM PEPTIDE1{V.S.C.T.G.S.K.D.C.Y.A.P.C.R.K.Q.T.G.C.P.N.A.K.C.I.N.K.S.C.K.C.Y.G.C.[am]}$PEPTIDE1,PEPTIDE1,3:R3-24:R3|PEPTIDE1,PEPTIDE1,9:R3-29:R3|PEPTIDE1,PEPTIDE1,13:R3-19:R3|PEPTIDE1,PEPTIDE1,31:R3-34:R3$$$V2.0; N-terminus and C-terminus assumed)	ShK > KTX1 > MTX	3	MTX > ShK >> KTX1	negligible binding
CC[C@H](C)[C@@H]1NC(=O)[C@@H](NC(=O)[C@H](CO)NC(=O)[C@@H](N)CCCNC(=N)N)CSSC[C@@H](C(=O)O)NC(=O)[C@H]([C@@H](C)O)NC(=O)CNC(=O)[C@@H]2CSSC[C@@H]3NC(=O)[C@H](CCC(N)=O)NC(=O)[C@H](Cc4ccccc4)NC(=O)[C@H](C)NC(=O)[C@H]([C@@H](C)O)NC(=O)[C@H](CSSC[C@H](NC(=O)[C@H](Cc4ccccc4)NC(=O)[C@H](CO)NC(=O)[C@H](CC(C)C)NC(=O)[C@H](CCCNC(=N)N)NC(=O)[C@H](Cc4ccc(O)cc4)NC(=O)[C@H](CCCCN)NC(=O)[C@H](CCSC)NC(=O)[C@H](CO)NC(=O)[C@H](Cc4c[nH]cn4)NC(=O)[C@H](CCCCN)NC3=O)C(=O)N[C@@H](CCCNC(=N)N)C(=O)N[C@@H](CCCCN)C(=O)N[C@@H]([C@@H](C)O)C(=O)N2)NC(=O)[C@H](CCCNC(=N)N)NC(=O)[C@H](CO)NC(=O)[C@H](CCCCN)NC(=O)[C@@H]2CCCN2C(=O)[C@H]([C@@H](C)CC)NC(=O)[C@H]([C@@H](C)O)NC(=O)[C@H](CC(=O)O)NC1=O [ShK, Stichodactyla toxin]	ShK > KTX1 > MTX	1	MTX > ShK >> KTX1	

Source: article PMC11002876, “KcsA-Kv1.x chimeras with complete ligand-binding sites provide improved predictivity for screening selective Kv1.x blockers” (The Journal of Biological Chemistry, 2024)
